In patent US20230017045A1, “PYRIDINE AND PYRIMIDINE CARBOXYLATE HERBICIDES AND METHODS OF USE THEREOF” (Dow AgroSciences LLC, priority 2017, published 2023) one finds pest or weed control data, which are given here for seven compounds.

Like-named read-outs stand apart in the source and are kept apart here.

This assay has as its system test plant species. Kind of assay: Post-emergent herbicidal activity test (greenhouse, foliar spray, visual growth reduction). The class given is in vivo. The note with it: post-emergence, 336 h, 140 g ai/ha, 14 days after application. Here is the method:
Post-emergent Test: Seeds or nutlets of the desired test plant species were planted in Sun Gro Metro-Mix® 360 planting mixture, which typically has a pH of 6.0 to 6.8 and an organic matter content of about 30 percent, in plastic pots with a surface area of 64 square centimeters. In some aspects, to ensure good germination and healthy plants, a fungicide treatment and/or other chemical or physical treatment was applied. The plants were grown for 7-21 d in a greenhouse with an approximate 15 h photoperiod which was maintained at 23-29° C. during the day and 22-28° C. during the night. Nutrients and water were added on a regular basis and supplemental lighting was provided with overhead metal halide 1000-Watt lamps as necessary. Plants were used for testing when they reached the first or second true leaf stage. A weighed amount, determined by the highest rate to be tested, of each test compound was placed in a 25 mL glass vial and was dissolved in 4 mL of a 97:3 v/v mixture of acetone and DMSO to obtain concentrated stock solutions. […] The concentrated stock solutions obtained were diluted with 20 mL of an aqueous mixture containing acetone, water, isopropyl alcohol, DMSO, […] crop oil concentrate, and X-77 surfactant in a 48.5:39:10:1.5:1.0:0.02 v/v ratio to obtain spray solutions containing the application rate. Compound requirements are based upon a 12 mL application volume at a rate of 187 liters per hectare (L/ha). Formulated compounds were applied to the plant material with an overhead Mandel track sprayer equipped with […] nozzles calibrated to deliver 187 L/ha over an application area of 0.64 square meters at a spray height of 18 inches (43 cm) above the average plant canopy height. Control plants were sprayed in the same manner with the solvent blank. The treated plants and control plants were placed in a greenhouse as described above and watered by subirrigation to prevent wash-off of the test compounds. After 14 d, the condition of the test plants as compared with that of the nontreated and control plants was determined visually and scored on a scale of 0 to 100 percent where 0 corresponds to no injury and 100 corresponds to complete control. In the reporting of the results, Table A: Percent Growth Reduction Conversion Table was used.

The mark [1] stands for this setting: ALOMY: blackgrass (Alopecurus myosuroides), read-out: Visual Growth Reduction (%) 14 Days After Application, ALOMY.
Where [2] appears, read: AMARE: redroot pigweed (Amaranthus retroflexus), read-out: Visual Growth Reduction (%) 14 Days After Application, AMARE.
Setting [3] is: AVEFA: wild oat (Avena fatua), read-out: Visual Growth Reduction (%) 14 Days After Application, AVEFA.
Setting [4] is: CHEAL: lambsquarters (Chenopodium album), read-out: Visual Growth Reduction (%) 14 Days After Application, CHEAL.
[5] abbreviates: CIRAR: canada thistle (Cirsium arvense), read-out: Visual Growth Reduction (%) 14 Days After Application, CIRAR.
Where [6] appears, read: CYPES: yellow nutsedge (Cyperus esculentus), read-out: Visual Growth Reduction (%) 14 Days After Application, CYPES.
Where [7] appears, read: DIGSA: crabgrass (Digitaria sanguinalis), read-out: Visual Growth Reduction (%) 14 Days After Application, DIGSA.
[8] abbreviates: ECHCG: barnyardgrass (Echinochloa crus-galli), read-out: Visual Growth Reduction (%) 14 Days After Application, ECHCG.
Setting [9] is: IPOHE: ivy-leaf morning glory (Ipomoea hederacea), read-out: Visual Growth Reduction (%) 14 Days After Application, IPOHE.
Setting [10] is: KCHSC: kochia (Bassia scoparia), read-out: Visual Growth Reduction (%) 14 Days After Application, KCHSC.
Where [11] appears, read: ORYSA: rice (Oryza sativa), read-out: Visual Growth Reduction (%) 14 Days After Application, ORYSA.
Setting [12] is: SETFA: giant foxtail (Setaria faberi), read-out: Visual Growth Reduction (%) 14 Days After Application, SETFA.
Where [13] appears, read: SORVU: grain sorghum (Sorghum vulgare), read-out: Visual Growth Reduction (%) 14 Days After Application, SORVU.
Where [14] appears, read: STEME: common chickweed (Stellaria media), read-out: Visual Growth Reduction (%) 14 Days After Application, STEME.
Where [15] appears, read: TRZAS: wheat, spring (Triticum aestivum), read-out: Visual Growth Reduction (%) 14 Days After Application, TRZAS.

As for `COC(=O)c1nc(-c2cc(C)c(C)cc2Cl)ccc1Cl` [F49, Methyl 3-chloro-6-(2-chloro-4,5-dimethylphenyl) picolinate], the pest or weed control at 140 g/ha is, setting by setting: under setting [1], 0 to 29%; under setting [2], 30 to 44%; under setting [3], 0 to 29%; under setting [4], 45 to 59%; under setting [5], 0 to 29%; under setting [6], 0 to 29%. For the same compound, the pest or weed control at 140 g/ha by setting is: under setting [7], 0 to 29%; under setting [8], 0 to 29%; under setting [9], 0 to 29%; under setting [10], 0 to 29%; under setting [11], 0 to 29%; under setting [12], 0 to 29%. Besides, the pest or weed control at 140 g/ha fell in the range of 0 to 29% under setting [13], 0 to 29% under setting [14] and 0 to 29% under setting [15].

In the case of `COC(=O)c1nc(-c2cc(Cl)c(C#N)cc2Cl)ccc1Cl` [F50, Methyl 3-chloro-6-(2,5-dichloro-4-cyanophenyl) picolinate], the pest or weed control at 140 g/ha by setting is: under setting [1], 0 to 29%; under setting [2], 0 to 29%; under setting [3], 0 to 29%; under setting [4], 60 to 74%; under setting [5], 0 to 29%; under setting [6], 0 to 29%. In addition, the pest or weed control at 140 g/ha under setting [7] lay within 0 to 29%; the pest or weed control at 140 g/ha under setting [8] was 0 to 29%; the pest or weed control at 140 g/ha under setting [10] lay in the range of 0 to 29%; the pest or weed control at 140 g/ha under setting [11] was in the range of 0 to 29%; the pest or weed control at 140 g/ha under setting [12] lay in the range of 0 to 29%; the pest or weed control at 140 g/ha under setting [13] was in the range of 0 to 29%. Besides, the pest or weed control at 140 g/ha was in the range of 0 to 29% under setting [14] and 0 to 29% under setting [15].

On to `COC(=O)c1nc(-c2cc(C)c(Cl)cc2Cl)ccc1Cl` [F51, Methyl 3-chloro-6-(2,4-dichloro-5-methylphenyl) picolinate], for which the pest or weed control at 140 g/ha is, setting by setting: under setting [1], 0 to 29%; under setting [2], 45 to 59%; under setting [3], 0 to 29%; under setting [4], 45 to 59%; under setting [5], 0 to 29%; under setting [6], 0 to 29%. In addition, the pest or weed control at 140 g/ha under setting [7] was in the range of 0 to 29%; the pest or weed control at 140 g/ha under setting [8] is 0 to 29%; the pest or weed control at 140 g/ha under setting [10] was 0 to 29%; the pest or weed control at 140 g/ha under setting [11] was in the range of 0 to 29%; the pest or weed control at 140 g/ha under setting [12] fell in the range of 0 to 29%; the pest or weed control at 140 g/ha under setting [13] was in the range of 0 to 29%. For the same compound, the pest or weed control at 140 g/ha reads like this: under setting [14], 0 to 29%; under setting [15], 0 to 29%.

`COC(=O)c1nc(-c2ccc(Cl)cc2Cl)ccc1C` [F52, Methyl 6-(2,4-dichlorophenyl)-3-methylpicolinate]: the pest or weed control at 140 g/ha under setting [1] was in the range of 0 to 29%; the pest or weed control at 140 g/ha under setting [2] was 0 to 29%; the pest or weed control at 140 g/ha under setting [3] lay in the range of 0 to 29%; the pest or weed control at 140 g/ha under setting [4] is 0 to 29%; the pest or weed control at 140 g/ha under setting [5] was 0 to 29%; the pest or weed control at 140 g/ha under setting [6] was 0 to 29%. The pest or weed control at 140 g/ha reads like this: under setting [7], 0 to 29%; under setting [8], 0 to 29%; under setting [10], 0 to 29%; under setting [11], 0 to 29%; under setting [12], 0 to 29%; under setting [13], 0 to 29%. In addition, the pest or weed control at 140 g/ha by setting is: under setting [14], 0 to 29%; under setting [15], 0 to 29%.

For the compound `COC(=O)c1nc(-c2ccc(C(F)(F)F)cc2Cl)ccc1C` [F53, Methyl 6-(2-chloro-4-(trifluoromethyl)phenyl)-3-methylpicolinate], the pest or weed control at 140 g/ha under setting [1] is 60 to 74%; the pest or weed control at 140 g/ha under setting [2] lay within 95 to 100%; the pest or weed control at 140 g/ha under setting [3] lay within 75 to 84%; the pest or weed control at 140 g/ha under setting [4] fell in the range of 95 to 100%; the pest or weed control at 140 g/ha under setting [5] is 95 to 100%; the pest or weed control at 140 g/ha under setting [6] lay in the range of 0 to 29%. The pest or weed control at 140 g/ha under setting [7] lay in the range of 95 to 100%; the pest or weed control at 140 g/ha under setting [8] was in the range of 0 to 29%; the pest or weed control at 140 g/ha under setting [10] lay in the range of 0 to 29%; the pest or weed control at 140 g/ha under setting [11] lay within 0 to 29%; the pest or weed control at 140 g/ha under setting [12] was 0 to 29%; the pest or weed control at 140 g/ha under setting [13] lay within 0 to 29%. Also, the pest or weed control at 140 g/ha fell in the range of 0 to 29% under setting [14] and 0 to 29% under setting [15].

Consider `O=C(OCc1ccccn1)c1nc(-c2ccc(C(F)(F)F)cc2Cl)ccc1Cl` [F54, Pyridin-2-ylmethyl 3-chloro-6-(2-chloro-4-(trifluoromethyl)phenyl)picolinate], for which the pest or weed control at 140 g/ha by setting is: under setting [1], 0 to 29%; under setting [2], 0 to 29%; under setting [3], 0 to 29%; under setting [4], 0 to 29%; under setting [5], 0 to 29%; under setting [6], 0 to 29%. Moreover, the pest or weed control at 140 g/ha is 0 to 29% under setting [7]; 75 to 84% under setting [8]; 95 to 100% under setting [9]; 95 to 100% under setting [10]; 0 to 29% under setting [11]; 85 to 94% under setting [12]. Also, the pest or weed control at 140 g/ha was in the range of 95 to 100% under setting [13], 0 to 29% under setting [14] and 85 to 94% under setting [15].

Regarding `COC(=O)c1cccc(-c2ccc(C(F)(F)F)cc2Cl)n1` [F55, Methyl 6-(2-chloro-4-(trifluoromethyl)phenyl)picolinate], the pest or weed control at 140 g/ha was 0 to 29% under setting [1]; 95 to 100% under setting [2]; 0 to 29% under setting [3]; 60 to 74% under setting [4]; 0 to 29% under setting [5]; 0 to 29% under setting [6]. Besides, the pest or weed control at 140 g/ha was 0 to 29% under setting [7]; 0 to 29% under setting [8]; 30 to 44% under setting [9]; 0 to 29% under setting [10]; 0 to 29% under setting [11]; 0 to 29% under setting [12]. For the same compound, the pest or weed control at 140 g/ha reads like this: under setting [13], 0 to 29%; under setting [14], 0 to 29%; under setting [15], 0 to 29%.
